# Source: ChEMBL document CHEMBL1130971, “Endothelin antagonists: evaluation of 2,1,3-benzothiadiazole as a methylendioxyphenyl bioisoster” (Bioorg Med Chem Lett, 1998)
# Molecular target: Endothelin-1 receptor (Rattus norvegicus)
# Assay: pA2 value towards endothelin receptor A was determined as functional ETA antagonism
row,Structure (SMILES),Kb
1,COc1ccc(C(=O)/C(Cc2cc(OC)c(OC)c(OC)c2)=C(\C(=O)O)c2ccc3nsnc3c2)cc1,0.00316 µM
2,COc1ccc(C(=O)/C(Cc2cc(OC)c(OC)c(OC)c2)=C(\C(=O)O)c2ccc3c(c2)OCO3)cc1 [PD-156707 SODIUM],0.0251 µM

# Molecular target: T1, Endothelin-1 receptor (Rattus norvegicus, UniProt P26684)
# T1 sequence (P26684 whole entry): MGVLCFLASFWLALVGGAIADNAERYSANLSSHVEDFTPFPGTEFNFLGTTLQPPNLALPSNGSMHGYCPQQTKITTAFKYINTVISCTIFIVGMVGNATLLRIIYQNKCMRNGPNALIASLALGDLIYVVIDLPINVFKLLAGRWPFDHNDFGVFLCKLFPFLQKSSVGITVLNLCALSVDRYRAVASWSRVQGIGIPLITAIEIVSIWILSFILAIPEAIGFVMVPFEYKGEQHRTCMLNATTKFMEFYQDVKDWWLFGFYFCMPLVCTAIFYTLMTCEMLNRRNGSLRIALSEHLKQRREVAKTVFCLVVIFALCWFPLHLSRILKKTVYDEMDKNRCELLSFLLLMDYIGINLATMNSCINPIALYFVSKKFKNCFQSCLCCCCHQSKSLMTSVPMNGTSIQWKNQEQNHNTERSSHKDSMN
# Assay: Inhibition of [125I]ET1 binding to rat aorta membrane Endothelin A receptor
row,Structure (SMILES),IC50
1,COc1ccc(-c2c(C(=O)O)c(=O)n(Cc3ccc4nsnc4c3)c3c2oc2ccccc23)cc1,0.39 µM
2,CN(C)c1cccc2c(S(=O)(=O)Nc3ccc4c(c3)OCO4)cccc12,0.37 µM
3,CCCOc1ccc2c(c1)c(-c1ccc3c(c1)OCO3)c(C(=O)O)n2Cc1ccc2nonc2c1,2.5 µM
4,COc1ccc(-c2c(C(=O)O)c(=O)n(Cc3ccc4c(c3)OCO4)c3c2oc2ccccc23)cc1,1.3 µM
5,CCCOc1ccc2c(c1)c(-c1ccc3c(c1)OCO3)c(C(=O)O)n2Cc1ccc2c(c1)OCO2,0.25 µM
6,CCCOc1ccc2c(c1)c(-c1ccc(OC)cc1)c(C(=O)O)n2Cc1ccc2nsnc2c1,0.21 µM
7,CCCOc1ccc2c(c1)c(-c1ccc(OC)cc1)c(C(=O)O)n2Cc1cc2nsnc2cc1C,0.16 µM

# Further lines, results first:
row,IC50,Structure (SMILES)
1,0.097 µM,CCCOc1ccc2c(c1)c(-c1ccc3c(c1)OCO3)c(C(=O)O)n2Cc1ccc2nsnc2c1
2,0.033 µM,COc1cc2c(-c3ccc4c(c3)OCO4)c(C(=O)O)n(Cc3ccc4nsnc4c3)c2cc1OC
3,0.15 µM,COc1cc2c(-c3ccc4c(c3)OCO4)c(C(=O)O)n(Cc3ccc4c(c3)OCO4)c2cc1OC
4,0.0003 µM,COc1ccc(C2(O)OC(=O)C(c3ccc4nsnc4c3)=C2Cc2cc(OC)c(OC)c(OC)c2)cc1 (stereo not drawn)
